Assay results from patent publication US20180243421A1, “IMMUNOSTIMULATING AGENT” (AJINOMOTO CO., INC., priority 2015, published 2018).

Key:
[1] = test system: anti-OVA-specific IgG1 subclass antibody; experiment: Adjuvant activity: anti-OVA-specific IgG1 subclass antibody in serum after secondary immunization (Examples 1, 5, 7, 8; ELISA absorbance); assay type: in vivo, BALB/c mice
Protocol: Two weeks from the secondary immunization, the whole blood was extracted under anesthesia, and the obtained serum sample was measured for anti-OVA-specific IgG1 subclass antibody.
A method for measurement of the anti-OVA-specific IgG1 subclass antibody in Example 1, and the following Examples 5, 7 and 8 is as follows.
Measurement Method of anti-OVA-specific IgG1 Subclass Antibody
To a 96 well plate was added 5 μg/ml OVA at 100 μl/well, and the mixture was incubated at 4° C. overnight. After incubation, the mixture was washed three times with 200 μl of PBS-T (PBS+0.05%(v/v) Tween 20) per well, and blocked with 100 μl of 5% FCS/PBS solution per well at room temperature for 1 to 2 hr. Thereafter, the mixture was washed three times with PBS-T (200 μl/well), a diluted serum sample (100 μl/well) or the same amount of 5% FCS/PBS solution as a control was added, and the mixture was incubated at 37° C. for 1 hr. Thereafter, the mixture was washed five times with PBS-T (200 μl/well), a diluted biotinylated anti-mouse IgG1 antibody (100 μl/well) was added, and the mixture was incubated at 37° C. for 45 min. Thereafter, the mixture was washed five times with PBS-T (200 μl/well), a diluted anti-biotin-HRP antibody was added (100 μl/well), and the mixture was incubated at 37° C. for another 30 min. Thereafter, the mixture was washed five times with PBS-T (200 μl/well), TMB substrate solution was added (100 μl/well), and the mixture was incubated at room temperature for 10 to 15 min. Thereafter, a reaction quenching liquid (2N sulfuric acid solution) was added (50 μl/well) to discontinue a color developing reaction, and the absorbance (OD Value=450 nm) was measured by a microplate reader.

[2] = test system: anti-OVA-specific IgE antibody; conditions: mouse, in vivo
Protocol: The serum sample obtained in Example 1 was measured for an anti-OVA-specific IgE antibody. The measurement method of the anti-OVA-specific IgE antibody in Example 3 and Examples 6, 9 is as follows.
Measurement Method of anti-OVA-specific IgE Antibody
DS mouse IgE ELISA (OVA) kit manufactured by DS Pharma Biomedical Co., Ltd. was used. The protocol is briefly shown below.
The serum sample and a standard reagent for drawing an analytical curve are diluted with a buffer and, after stirring, left standing at room temperature for 10 min. The sample and the standard solution are added to a plate bound with an IgE capture antibody in advance and, after stirring, the mixture is left standing at room temperature for 60 min. The mixture is washed three times with wash, HRP-labeled OVA is added, and the mixture is left standing at room temperature for 30 min. The mixture is washed three times with wash, a substrate solution is added, and the mixture is left standing in dark at room temperature for 30 min. A reaction quenching liquid is added, the mixture is stirred, and the absorbance (OD Value=450 nm) is immediately measured.
This test was performed in the same manner as in Example 3 except that N^2-hexadecanoyl-L-arginine (SZ61), N-hexadecanoylagmatine (SZ62), N^2-hexadecanoyl-L-arginine methyl ester hydrochloride (SZ63), N^2-octadecanoyl-L-glutamine tert-butyl ester (SZ64), and N^2-octadecanoyl-L-glutamine (SZ65) were used.
This test was performed in the same manner as in Example 6 except that N-hexadecanoylagmatine (SZ62), N^2-octadecanoyl-L-glutamine tert-butyl ester (SZ64), N-docosanoyl-L-leucine methyl ester (SZ70), and N-docosanoyl-L-phenylalanine methyl ester (SZ71) were used and a positive control adjuvant Addavax™ (InvivoGen) administration group was formed.
(§1) The allergy inducing activity test was performed in the same manner as in Example 3 except that Addavax™, N-(2-octadecyleicosanoyl)-L-leucine methyl ester (SZ86), N-hexadecanoyl-L-leucinamide (SZ90), N^2-hexadecanoyl-N^1,N^1-diethyl-L-leucinamide (SZ92), N^2-hexadecanoyl-L-arginine hexyl ester hydrochloride (SZ99) and N^2-docosanoyl-N^1,N^1-diethyl-L-glutamic acid 1-amide (SZ106) were used.
as §1, with “N-hexadecanoyl-L-leucine” for “N^2-hexadecanoyl-L-arginine”, “(SZ97),” for “hydrochloride (SZ99) and”, “(SZ106) and N-docosanoylagmatine hydrochloride (SZ108)” for “(SZ106)”
8-Week-old female BALB/c mice were divided into groups (N=6), and each group was primarily immunized by dorsal-subcutaneous administration of (1) ovalbumin (OVA) (5 μg) dissolved in saline as an antigen (OVA single administration group), (2) OVA (10 μg) and aluminum hydroxide salt dissolved in saline (Alum administration group), (3) OVA 10 μg and Addavax™ (mixed with saline at 1:1) dissolved in saline (Addavax™ administration group), (4) OVA 10 μg and CpG 5 μg dissolved in saline (CpG administration group), (5) OVA 10 μg and MPL 5 μg dissolved in saline (MPL administration group), (6) OVA (5 μg) and SZ62 (0.256 μmol) dissolved or dispersed in 5% αCD-added saline (SZ62 administration group), (7) OVA (5 μg), SZ62 (0.256 μmol) and CpG 5 μg dissolved or dispersed in 5% αCD-added saline (SZ62+CpG administration group), (8) OVA 10 μg, Addavax™ (mixed with saline at 1:1) and CpG 5 μg dissolved in saline (Addavax™+CpG administration group), (9) OVA (5 μg), SZ62 (0.256 μmol) and MPL 5 μg dissolved or dispersed in 5% αCD-added saline (SZ62+MPL administration group), (10) OVA (10 μg), aluminum hydroxide salt (Alum) and MPL 5 μg dissolved in saline (Alum+MPL administration group), each per mouse. One week later, the secondary immunization was carried out by dorsal-subcutaneous administration of solutions or dispersions similar to those of the above-mentioned (1) to (10) again.

allergy inducing activity as compared to aluminum hydroxide gel adjuvant [2]: lower allergy inducing activity
allergy inducing activity as compared to aluminum hydroxide gel adjuvant and Addavax [2]: lower allergy inducing activity
SMILES: CCCCCCCCCCCCCCCCCC(=O)N[C@@H](CCC(N)=O)C(=O)OC(C)(C)C [SZ64, N^2-octadecanoyl-L-glutamine tert-butyl ester]
adjuvant activity (IgG1) compared with Alum ([1]; Example 5): equivalent to or not less than that of Alum
anti-OVA-specific IgG1 subclass antibody production as compared to the OVA single administration group ([1]; Example 5, same manner as Example 1): significantly increased
adjuvant activity (IgG1) compared with Alum ([1]; Example 8): equivalent to or not less than that of Alum
anti-OVA-specific IgG1 subclass antibody production as compared to the OVA single administration group ([1]; Example 8, same manner as Example 7): significantly increased
anti-OVA-specific IgE antibody production as compared to the OVA single administration group [2]: a significant increase in the anti-OVA-specific IgE antibody production was not observed
